tested on: male Sprague-Dawley rats; assay: in vivo screen APCC, cholesterol-fed rats, blood cholesterol; details: Table 2, dosed at 30 mg/kg unless otherwise noted, high fat, high cholesterol diet with 0.5% cholic acid overnight, blood cholesterol vs vehicle
Description: In one in vivo screen designated APCC, male Sprague-Dawley rats (200 to 225 g) were randomly divided into treatment groups and dosed at 4 PM with either vehicle (CMC/Tween) or suspensions of compounds in vehicle. The normal chow diet was then replaced with a high fat, high cholesterol diet with 0.5% cholic acid. The rats consumed this diet ad libitum during the night and were sacrificed at 8 AM to obtain blood samples for cholesterol analysis using standard procedures. Statistical differences between mean cholesterol values for the same vehicle were determined using analysis of variance followed by Fisher's least significant test.

Compound | APCC (% ΔTC) [%]
(±)-2-Dodecyl-β-phenyl-N-(2,4-6-trimethoxyphenyl)-2H-tetrazole-5-propanamide and (±)-1-dodecyl-β-phenyl-N-(2,4,6-trimethoxyphenyl)-^1H-tetrazole-5-acetamide [Example 45] | -60

target: acyl-CoA: cholesterol acyltransferase (ACAT); assay: in vitro ACAT inhibition, rabbit intestinal microsomes (IAI); assay type: biochemical; details: radiolabeled cholesterol oleate formed from radiolabeled oleic acid
Description: (§1) The test assesses the ability of a test compound to inhibit the acylation of cholesterol by oleic acid by measuring the amount of radiolabeled cholesterol oleate formed from radiolabeled oleic acid in a tissue preparation containing rabbit intestinal microsomes (designated IAI) or from rat liver microsomes (designated LAI).

Compound | IC50 [nM]
CCCCCCCCCCCCn1nnc(CCC(=O)Nc2c(C(C)C)cccc2C(C)C)n1 [Example 35, N-(2,6-Bis(1-methylethyl)phenyl)-2-dodecyl-2H-tetrazole-5-propanamide] | 9
CCCCCCCCCCCCn1nnc(CCC(=O)Nc2ccc(F)cc2F)n1 [Example 36, N-(2,4-Difluorophenyl)-2-dodecyl-2H-tetrazole-5-propanamide] | > 5000
CCCCCCCCCCCCn1nnc(C(C(=O)Nc2c(C(C)C)cccc2C(C)C)(c2ccccc2)c2ccccc2)n1 [Example 46, N-[2,6-Bis(1-methylethyl)phenyl]-2-dodecyl-α,α-diphenyl-2H-tetrazole-5-acetamide] | 11000
(±)-2-Dodecyl-β-phenyl-N-(2,4-6-trimethoxyphenyl)-2H-tetrazole-5-propanamide and (±)-1-dodecyl-β-phenyl-N-(2,4,6-trimethoxyphenyl)-^1H-tetrazole-5-acetamide [Example 45] | 230

Continued, values first:

IC50 [nM] | Compound
69 | CCCCCCCCCCCCn1nnc(CCC(=O)Nc2c(OC)cc(OC)cc2OC)n1 [Example 34, 2-Dodecyl-N-(2,4,6-trimethoxyphenyl)-2H-tetrazole-5-propanamide]
210 | CCCCCCCCCCCCn1nnnc1CCC(=O)Nc1c(OC)cc(OC)cc1OC [Example 37, 1-Dodecyl-N-(2,4,6-trimethoxyphenyl)-1H-tetrazole-5-propanamide]
2100 | CCCCCCCCCCCCCCn1nnc(CCC(=O)Nc2c(OC)cc(OC)cc2OC)n1 [Example 47, 2-tetradecyl-N-(2,4,6-tri-methoxyphenyl)-2H-tetrazole-5-propanamide]
15 | CCCCCCCCCCCCCCn1nnc(CC(=O)Nc2c(OC)cc(OC)cc2OC)n1 [Example 49, 2-tetradecyl-N-(2,4,6-tri-methoxyphenyl)-2H-tetrazole-5-acetamide]
1000 | CCCCCCCCCCCCCCn1nnnc1CC(=O)Nc1c(OC)cc(OC)cc1OC [Example 50, 1-tetradecyl-N-(2,4,6-tri-methoxyphenyl)-1H-tetrazole-5-acetamide]

target: acyl-CoA: cholesterol acyltransferase (ACAT); assay: in vitro ACAT inhibition, rat liver microsomes (LAI); assay type: biochemical; details: radiolabeled cholesterol oleate formed from radiolabeled oleic acid
Description: as §1

Compound | IC50 [nM]
CC(C)c1cccc(C(C)C)c1NC(=O)C(c1ccccc1)n1nnc(C(c2ccccc2)c2ccccc2)n1 (racemic) [Example 90, (±)-N-[2,6-bis(1-methylethyl)phenyl]-5-(diphenylmethyl)-α-phenyl-2H-tetrazole-2-acetamide] | 100
CCCCCCCCCCCCc1nnn(C(CCCCC)C(=O)Nc2c(C(C)C)cccc2C(C)C)n1 (racemic) [Example 93, (±)-N-[2,6-bis(1-methylethyl)phenyl]-5-dodecyl-α-pentyl-2H-tetrazole-2-acetamide] | 22
COc1cc(OC)c(NC(=O)C(c2ccccc2)n2nnc(C(c3ccccc3)c3ccccc3)n2)c(OC)c1 (racemic) [Example 96, (±)-5-(diphenylmethyl)-α-phenyl-N-(2,4,6-trimethoxyphenyl)-2H-tetrazole-2-acetamide] | 190
CCCCCCCCCCc1nnn(CC(=O)Nc2c(C(C)C)cccc2C(C)C)n1 [Example 88, N-[2,6-bis(1-methylethyl)phenyl]-5-decyl-2H-tetrazole-2-acetamide] | 10
CCCCCCCCCCc1nnnn1CC(=O)Nc1c(C(C)C)cccc1C(C)C [Example 89, N-[2,6-bis(1-methylethyl)phenyl]-5-decyl-1H-tetrazole-1-acetamide] | 390
CCCCCCCCCCCCc1nnn(CC(=O)Nc2c(C(C)C)cccc2C(C)C)n1 [Example 91] | 6
CCCCCCCCCCCCc1nnn(CC(=O)Nc2ccc(F)cc2F)n1 [Example 101, N-(2,4-difluorophenyl)-5-dodecyl-2H tetrazole-2-acetamide] | > 5000

Other lines, results leading:

IC50 [nM] | Compound
15 | CCCCCCCCCCCCc1nnn(C(C(=O)Nc2c(C(C)C)cccc2C(C)C)c2ccccc2)n1 (racemic) [Example 92, (±)-N-[2,6-bis(1-methylethyl)phenyl]-5-dodecyl-α-phenyl-2H-tetrazole-2-acetamide]
29 | CCCCCCCCCCCCSc1nnn(C(C(=O)Nc2c(C(C)C)cccc2C(C)C)c2ccccc2)n1 (racemic) [Example 94, (±)-N-[2,6-bis(1-methylethyl)phenyl-5-(dodecylthio)-α-phenyl-2H-tetrazole-2-acetamide]
58 | CCCCCCCCCCc1nnn(C(C(=O)Nc2c(OC)cc(OC)cc2OC)c2ccccc2)n1 (racemic) [Example 95, (±)-5-decyl-α-phenyl-N-(2,4,6-trimethoxyphenyl-2H-tetrazole-2-acetamide]
21 | CCCCCCCCCCCCc1nnn(C(C(=O)Nc2c(OC)cc(OC)cc2OC)c2ccccc2)n1 (racemic) [Example 98, (±)-5-dodecyl-α-phenyl-N-(2,4,6-trimethoxyphenyl)-2H-tetrazole-2-acetamide]
32 | CCCCCCCCCCCCc1nnn(C(CCCCC)C(=O)Nc2c(OC)cc(OC)cc2OC)n1 (racemic) [Example 99, (±)-5-dodecyl-α-pentyl-N-(2,4,6-trimethoxyphenyl)-2H-tetrazole-2-acetamide]
80 | CCCCCCCCCCCCc1nnn(C(C(=O)Nc2ccc(F)cc2F)c2ccccc2)n1 (racemic) [Example 100, (±)-N-(2,4-difluorophenyl-5-dodecyl-α-phenyl-2H-tetrazole-2-acetamide]
49 | CCCCCCCCCCCCSc1nnn(C(C(=O)Nc2c(OC)cc(OC)cc2OC)c2ccccc2)n1 (racemic) [Example 103, (±)-5-(dodecylthio)-α-phenyl-N-(2,4,6-trimethoxyphenyl)-2H-tetrazole-2-acetamide]
55 | CCCCCCCCCCCC[S+]([O-])c1nnn(C(C(=O)Nc2c(OC)cc(OC)cc2OC)c2ccccc2)n1 (racemic) [Example 104, (±)-5-(dodecylsulfinyl)-α-phenyl-N-(2,4,6)-trimethoxyphenyl)-2H-tetrazole-2-acetamide]
56 | CCCCCCCCCCCCc1nnn(CC(=O)Nc2c(OC)cc(OC)cc2OC)n1 [Example 97, 5-dodecyl-N-(2,4,6-trimethoxy-phenyl)-2H-tetrazole-2-acetamide]
42 | CCCCCCCCCCCCc1nnn(C(C)(C)C(=O)Nc2c(OC)cc(OC)cc2OC)n1 [Example 102, 5-dodecyl-α,α-dimethyl-N-(2,4,6-trimethoxyphenyl)-2H-tetrazole-2-acetamide]

— EP0600950B1, “AMIDE TETRAZOLE ACAT INHIBITORS” (priority 1991, dated 1993)
